{"source": "ChEMBL document CHEMBL1201862", "about": "“PubChem BioAssay data set” (2004)", "test_in_all_cases": "NCI tumour cell line growth inhibition, 48 h", "key": {"[1]": {"system": "786-0"}, "[2]": {"system": "A549"}, "[3]": {"system": "ACHN"}, "[4]": {"system": "BT-549"}, "[5]": {"system": "CAKI-1"}, "[6]": {"system": "CCRF-CEM"}, "[7]": {"system": "COLO 205"}, "[8]": {"system": "DU-145"}, "[9]": {"system": "EKVX"}, "[10]": {"system": "HCC 2998"}, "[11]": {"system": "HCT-116"}, "[12]": {"system": "HCT-15"}, "[13]": {"system": "HL-60"}, "[14]": {"system": "HOP-62"}, "[15]": {"system": "HOP-92"}, "[16]": {"system": "HT-29"}, "[17]": {"system": "Hs-578T"}, "[18]": {"system": "IGROV-1"}, "[19]": {"system": "KM12"}, "[20]": {"system": "LOX IMVI"}, "[21]": {"system": "M14"}, "[22]": {"system": "MCF7"}, "[23]": {"system": "MDA-MB-231"}, "[24]": {"system": "MDA-MB-435"}, "[25]": {"system": "MDA-N"}, "[26]": {"system": "MOLT-4"}, "[27]": {"system": "Malme-3M"}, "[28]": {"system": "NCI-H226"}, "[29]": {"system": "NCI-H23"}, "[30]": {"system": "NCI-H522"}, "[31]": {"system": "NCI/ADR-RES"}, "[32]": {"system": "OVCAR-3"}, "[33]": {"system": "OVCAR-4"}, "[34]": {"system": "OVCAR-5"}, "[35]": {"system": "OVCAR-8"}, "[36]": {"system": "PC-3"}, "[37]": {"system": "RPMI-8226"}, "[38]": {"system": "RXF 393"}, "[39]": {"system": "SF-268"}, "[40]": {"system": "SF-295"}, "[41]": {"system": "SF-539"}, "[42]": {"system": "SK-MEL-28"}, "[43]": {"system": "SK-MEL-2"}, "[44]": {"system": "SK-OV-3"}, "[45]": {"system": "SN12C"}, "[46]": {"system": "SNB-19"}, "[47]": {"system": "SNB-75"}, "[48]": {"system": "SR"}, "[49]": {"system": "SW-620"}, "[50]": {"system": "T47D"}, "[51]": {"system": "TK-10"}, "[52]": {"system": "U-251"}, "[53]": {"system": "UACC-257"}, "[54]": {"system": "UACC-62"}, "[55]": {"system": "UO-31"}}, "note": "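Cells were grown in 96-well plates and exposed to each compound for 48 hours at five concentrations; endpoints were interpolated linearly between bracketing concentrations, or set to the highest concentration if not reached. GI50 = concentration required for 50% inhibition of growth.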 The source made the active and inactive calls. Cut-off read from the data, not from the text of the source: active = GI50 up to about 1.1 µM and inactive = higher."}
{"smiles": "O=C1NC(N2CCCCC2)=N/C1=C\\c1ccccc1", "values": [{"measurement": "GI50", "setting": "[1]", "value": "> 100 µM (inactive)"}, {"measurement": "GI50", "setting": "[2]", "value": "> 100 µM (inactive)"}, {"measurement": "GI50", "setting": "[3]", "value": "> 100 µM (inactive)"}, {"measurement": "GI50", "setting": "[4]", "value": "> 100 µM (inactive)"}, {"measurement": "GI50", "setting": "[5]", "value": "> 100 µM (inactive)"}, {"measurement": "GI50", "setting": "[6]", "value": "> 100 µM (inactive)"}, {"measurement": "GI50", "setting": "[7]", "value": "> 100 µM (inactive)"}, {"measurement": "GI50", "setting": "[8]", "value": "> 100 µM (inactive)"}, {"measurement": "GI50", "setting": "[9]", "value": "> 100 µM (inactive)"}, {"measurement": "GI50", "setting": "[10]", "value": "> 100 µM (inactive)"}, {"measurement": "GI50", "setting": "[11]", "value": "> 100 µM (inactive)"}, {"measurement": "GI50", "setting": "[12]", "value": "> 100", "unit": "µM"}, {"measurement": "GI50", "setting": "[13]", "value": "> 100 µM (inactive)"}, {"measurement": "GI50", "setting": "[14]", "value": "> 100 µM (inactive)"}, {"measurement": "GI50", "setting": "[15]", "value": "> 100 µM (inactive)"}, {"measurement": "GI50", "setting": "[16]", "value": "> 100 µM (inactive)"}, {"measurement": "GI50", "setting": "[17]", "value": "> 100 µM (inactive)"}, {"measurement": "GI50", "setting": "[18]", "value": "> 100 µM (inactive)"}, {"measurement": "GI50", "setting": "[19]", "value": "> 100 µM (inactive)"}, {"measurement": "GI50", "setting": "[20]", "value": "> 100 µM (inactive)"}, {"measurement": "GI50", "setting": "[21]", "value": "> 100 µM (inactive)"}, {"measurement": "GI50", "setting": "[22]", "value": "> 100 µM (inactive)"}, {"measurement": "GI50", "setting": "[23]", "value": "> 100 µM (inactive)"}, {"measurement": "GI50", "setting": "[24]", "value": "> 100 µM (inactive)"}, {"measurement": "GI50", "setting": "[25]", "value": "> 100 µM (inactive)"}, {"measurement": "GI50", "setting": "[26]", "value": "> 100 µM (inactive)"}, {"measurement": "GI50", "setting": "[27]", "value": "> 100 µM (inactive)"}, {"measurement": "GI50", "setting": "[28]", "value": "> 100 µM (inactive)"}, {"measurement": "GI50", "setting": "[29]", "value": "> 100 µM (inactive)"}, {"measurement": "GI50", "setting": "[30]", "value": "> 100 µM (inactive)"}, {"measurement": "GI50", "setting": "[31]", "value": "> 100 µM (inactive)"}, {"measurement": "GI50", "setting": "[32]", "value": "> 100 µM (inactive)"}, {"measurement": "GI50", "setting": "[33]", "value": "> 100 µM (inactive)"}, {"measurement": "GI50", "setting": "[34]", "value": "> 100 µM (inactive)"}, {"measurement": "GI50", "setting": "[35]", "value": "> 100 µM (inactive)"}, {"measurement": "GI50", "setting": "[36]", "value": "> 100 µM (inactive)"}, {"measurement": "GI50", "setting": "[37]", "value": "> 100 µM (inactive)"}, {"measurement": "GI50", "setting": "[38]", "value": "> 100 µM (inactive)"}, {"measurement": "GI50", "setting": "[39]", "value": "> 100 µM (inactive)"}, {"measurement": "GI50", "setting": "[40]", "value": "> 100 µM (inactive)"}, {"measurement": "GI50", "setting": "[41]", "value": "> 100 µM (inactive)"}, {"measurement": "GI50", "setting": "[42]", "value": "> 100 µM (inactive)"}, {"measurement": "GI50", "setting": "[43]", "value": "> 100 µM (inactive)"}, {"measurement": "GI50", "setting": "[44]", "value": "> 100 µM (inactive)"}, {"measurement": "GI50", "setting": "[45]", "value": "> 100 µM (inactive)"}, {"measurement": "GI50", "setting": "[46]", "value": "> 100 µM (inactive)"}, {"measurement": "GI50", "setting": "[47]", "value": "> 100 µM (inactive)"}, {"measurement": "GI50", "setting": "[48]", "value": "> 100 µM (inactive)"}, {"measurement": "GI50", "setting": "[49]", "value": "> 100 µM (inactive)"}, {"measurement": "GI50", "setting": "[50]", "value": "> 100 µM (inactive)"}, {"measurement": "GI50", "setting": "[51]", "value": "> 100 µM (inactive)"}, {"measurement": "GI50", "setting": "[52]", "value": "> 100 µM (inactive)"}, {"measurement": "GI50", "setting": "[53]", "value": "> 100 µM (inactive)"}, {"measurement": "GI50", "setting": "[54]", "value": "> 100 µM (inactive)"}, {"measurement": "GI50", "setting": "[55]", "value": "> 100 µM (inactive)"}]}
